Assay results taken from US12077503B2, “Substituted cyclic amides and their use as herbicides” (FMC CORPORATION, priority 2015, dated 2024).

What was measured:
Type in all cases: in vivo
[1] = test system: Kochia (Kochia scoparia); test: Test A postemergence; settings: Bassia scoparia, post-emergence, 240 h, Postemergence; for pest or weed control at 125 g/ha: 125 g ai/ha, visual rating about 10 d after treatment, read-out: Kochia plant response rating (0 to 100 scale); for pest or weed control at 500 g/ha: 500 g ai/ha, visual injury, 0 to 100 scale (0 no effect, 100 complete control), approx. 10 d, read-out: Plant response rating, Kochia
In short: (§1)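 Greenhouse, ~10 d after spray; visual injury vs untreated controls, 0 = no effect, 100 = complete control. Preemergence: directed soil spray over planted seeds. Postemergence: plants 2–10 cm, 1–2 leaf stage. Loam/sand blend. Compound in non-phytotoxic solvent with surfactant.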

[2] = test system: Galium (catchweed bedstraw, Galium aparine); test: Test A postemergence; settings: Galium, post-emergence, 240 h, Postemergence; for pest or weed control at 125 g/ha: 125 g ai/ha, visual rating about 10 d after treatment, read-out: Galium plant response rating (0 to 100 scale); for pest or weed control at 500 g/ha: 500 g ai/ha, visual injury, 0 to 100 scale (0 no effect, 100 complete control), approx. 10 d, read-out: Plant response rating, Galium
In short: as §1

[3] = test system: pigweed (Amaranthus retroflexus); test: Test A postemergence; settings: Amaranthus retroflexus, post-emergence, 240 h, Postemergence; for pest or weed control at 125 g/ha: 125 g ai/ha, visual rating about 10 d after treatment, read-out: Pigweed plant response rating (0 to 100 scale); for pest or weed control at 500 g/ha: 500 g ai/ha, visual injury, 0 to 100 scale (0 no effect, 100 complete control), approx. 10 d, read-out: Plant response rating, Pigweed
In short: as §1

[4] = test system: blackgrass (Alopecurus myosuroides); test: Test A postemergence; settings: Alopecurus myosuroides, post-emergence, 240 h, Postemergence; for pest or weed control at 125 g/ha: 125 g ai/ha, visual rating about 10 d after treatment, read-out: Blackgrass plant response rating (0 to 100 scale); for pest or weed control at 500 g/ha: 500 g ai/ha, visual injury, 0 to 100 scale (0 no effect, 100 complete control), approx. 10 d, read-out: Plant response rating, Blackgrass
In short: as §1

[5] = test system: ragweed (common ragweed, Ambrosia elatior); test: Test A postemergence; settings: Ambrosia artemisiifolia, post-emergence, 240 h, Postemergence; for pest or weed control at 125 g/ha: 125 g ai/ha, visual rating about 10 d after treatment, read-out: Ragweed plant response rating (0 to 100 scale); for pest or weed control at 500 g/ha: 500 g ai/ha, visual injury, 0 to 100 scale (0 no effect, 100 complete control), approx. 10 d, read-out: Plant response rating, Ragweed
In short: as §1

[6] = test system: corn (Zea mays); test: Test A postemergence; settings: Zea mays, post-emergence, 240 h, Postemergence; for plant injury at 125 g/ha: 125 g ai/ha, visual rating about 10 d after treatment, read-out: Corn plant response rating (0 to 100 scale); for Corn plant response rating (crop injury, 0 = no effect, 100 = complete kill) at 500 g/ha: 500 g ai/ha, visual injury, 0 to 100 scale (0 no effect, 100 complete control), approx. 10 d
In short: as §1

[7] = test system: ryegrass, Italian (Italian ryegrass, Lolium multiflorum); test: Test A postemergence; settings: Lolium multiflorum, post-emergence, 240 h, Postemergence; for pest or weed control at 125 g/ha: 125 g ai/ha, visual rating about 10 d after treatment, read-out: Ryegrass, Italian plant response rating (0 to 100 scale); for pest or weed control at 500 g/ha: 500 g ai/ha, visual injury, 0 to 100 scale (0 no effect, 100 complete control), approx. 10 d, read-out: Plant response rating, Ryegrass, Italian
In short: as §1

[8] = test system: barnyardgrass (Echinochloa crus-galli); test: Test A postemergence; settings: Echinochloa crus-galli, post-emergence, 240 h, Postemergence; for pest or weed control at 125 g/ha: 125 g ai/ha, visual rating about 10 d after treatment, read-out: Barnyardgrass plant response rating (0 to 100 scale, 0 no effect, 100 complete control); for pest or weed control at 500 g/ha: 500 g ai/ha, visual injury, 0 to 100 scale (0 no effect, 100 complete control), approx. 10 d, read-out: Plant response rating, Barnyardgrass
In short: as §1

[9] = test system: wheat (Triticum aestivum); test: Test A postemergence; settings: Triticum aestivum, post-emergence, 240 h, Postemergence; for plant injury at 125 g/ha: 125 g ai/ha, visual rating about 10 d after treatment, read-out: Wheat plant response rating (0 to 100 scale); for plant injury at 500 g/ha: 500 g ai/ha, visual injury, 0 to 100 scale (0 no effect, 100 complete control), approx. 10 d, read-out: Plant response rating, Wheat
In short: as §1

[10] = test system: giant foxtail (Setaria faberii); test: Test A postemergence; settings: Setaria faberi, post-emergence, 240 h, Postemergence; for pest or weed control at 125 g/ha: 125 g ai/ha, visual rating about 10 d after treatment, read-out: Foxtail, Giant plant response rating (0 to 100 scale); for pest or weed control at 500 g/ha: 500 g ai/ha, visual injury, 0 to 100 scale (0 no effect, 100 complete control), approx. 10 d, read-out: Plant response rating, Foxtail, Giant
In short: as §1

[11] = test system: sedge, umbrella (small-flower umbrella sedge, Cyperus difformis); test: Test B flooded paddy test; settings: Cyperus difformis, 250 g ai/ha, Flood; 0 to 100 scale where 0 is no effect and 100 is complete control; read-out: Sedge, Umbrella plant response rating
In short: (§2)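 2-leaf plants; pots flooded 3 cm over soil; cpd added to paddy water; depth held; greenhouse 13–15 d; visual rating vs controls, 0 = no effect, 100 = complete control.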

[12] = test system: rice (Oryra sativa); test: Test B flooded paddy test; settings: Oryza sativa, 250 g ai/ha, Flood; 0 to 100 scale where 0 is no effect and 100 is complete control; read-out: Rice plant response rating
In short: as §2

[13] = test system: ducksalad (Heteranthera limosa); test: Test B flooded paddy test; settings: Heteranthera limosa, 250 g ai/ha, Flood; 0 to 100 scale where 0 is no effect and 100 is complete control; read-out: Ducksalad plant response rating
In short: as §2

[14] = test system: barnyardgrass (Echinochloa crus-galli); test: Test B flooded paddy test; settings: Echinochloa crus-galli, 250 g ai/ha, Flood; 0 to 100 scale where 0 is no effect and 100 is complete control; read-out: Barnyardgrass plant response rating
In short: as §2

[15] = test system: ryegrass, Italian (Italian ryegrass, Lolium multiflorum); test: Test A preemergence; settings: Lolium multiflorum, pre-emergence, 240 h, preemergence, 0 to 100 scale where 0 is no effect and 100 is complete control, read-out: Ryegrass, Italian plant response rating; for pest or weed control at 125 g/ha: 125 g ai/ha, visual injury rating, approximately 10 d; for pest or weed control at 500 g/ha: 500 g ai/ha
In short: as §1

SMILES | pest or weed control at 125 g/ha [1] | pest or weed control at 500 g/ha [1] | pest or weed control at 125 g/ha [2] | pest or weed control at 500 g/ha [2] | pest or weed control at 125 g/ha [3] | pest or weed control at 500 g/ha [3] | pest or weed control at 125 g/ha [4] | pest or weed control at 500 g/ha [4] | pest or weed control at 125 g/ha [5] | pest or weed control at 500 g/ha [5] | plant injury at 125 g/ha [6] | Corn plant response rating (crop injury, 0 = no effect, 100 = complete kill) at 500 g/ha [6] | pest or weed control at 125 g/ha [7] | pest or weed control at 500 g/ha [7] | pest or weed control at 125 g/ha [8] | pest or weed control at 500 g/ha [8] | plant injury at 125 g/ha [9] | plant injury at 500 g/ha [9] | pest or weed control at 125 g/ha [10] | pest or weed control at 500 g/ha [10] | other results
Cc1nc([C@H]2CN(C)C(=O)[C@@H]2C(=O)Nc2ccccc2F)cs1 [Compound 1280] | 0% | 0% | 0% | 0% | 0% | 0% | 0% | 0% | 0% | 0% | 0% | 0% | 0% | 0% | 0% | 40% | 0% | 0% | 0% | 30% | pest or weed control at 250 g/ha [11]: 0%; pest or weed control at 250 g/ha [12]: 0%; pest or weed control at 250 g/ha [13]: 0%; pest or weed control at 250 g/ha [14]: 0%; pest or weed control at 125 g/ha [15]: 0%; pest or weed control at 500 g/ha [15]: 0%
COc1cc([C@H]2CN(C)C(=O)[C@@H]2C(=O)Nc2ccccc2S(C)(=O)=O)ccc1F [Compound 1302] | 0% | 20% | 0% | 30% | 0% | 0% | 0% | 20% | 0% | 0% | 0% | 0% | 0% | 20% | 60% | 90% | 0% | 0% | 30% | 80% | pest or weed control at 250 g/ha [11]: 0%; pest or weed control at 250 g/ha [12]: 15%; pest or weed control at 250 g/ha [13]: 80%; pest or weed control at 250 g/ha [14]: 20%; pest or weed control at 125 g/ha [15]: 0%; pest or weed control at 500 g/ha [15]: 0%
O=C1NC[C@H](c2nccc(C(F)(F)F)n2)[C@H]1C(=O)Nc1ccccc1F [Compound 1304] | 0% | 0% | 0% | 0% | 0% | 0% | 0% | 0% | 0% | 0% | 0% | 0% | 0% | 0% | 0% | 0% | 0% | 0% | 0% | 0% | pest or weed control at 250 g/ha [11]: 0%; pest or weed control at 250 g/ha [12]: 0%; pest or weed control at 250 g/ha [13]: 0%; pest or weed control at 250 g/ha [14]: 0%; pest or weed control at 125 g/ha [15]: 0%; pest or weed control at 500 g/ha [15]: 0%
